According to PubChem BioAssay AID248 (DTP/NCI, 2004):
“And” between values parts separate entries of the source, which are not always exact repeats. Equal values may be shown once. Inconclusive results and toxic doses are left out. Rule as the data show it: active = T/C of 150% or more; inactive = T/C below 125%.

Test system: L1210 leukemia ip in BDF1 mice, survival T/C
Assay: NCI In Vivo Anticancer Drug Screen. Data for tumor model L1210 Leukemia (intraperitoneal) in B6D2F1 (BDF1) mice
Details: endpoint: mean survival time, higher = longer survival
Summary of the method: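 Mice bearing the transplanted tumor received compound or vehicle. Survival of the treated group was divided by that of the vehicle-treated control group to give the ratio.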

[1] = dose: 100.0 mg/kg/injection, schedule: Q01DX009 (ip), vehicle: saline with Tween-80
[2] = dose: 100.0 mg/kg/injection, schedule: Q04DX003 (ip), vehicle: saline with Tween-80
[3] = dose: 200.0 mg/kg/injection, schedule: Q01DX009 (ip), vehicle: saline with Tween-80
[4] = dose: 200.0 mg/kg/injection, schedule: Q04DX003 (ip), vehicle: saline with Tween-80
[5] = dose: 400.0 mg/kg/injection, schedule: Q01DX009 (ip), vehicle: saline with Tween-80
[6] = dose: 400.0 mg/kg/injection, schedule: Q04DX003 (ip), vehicle: saline with Tween-80
[7] = dose: 100.0 mg/kg/injection, schedule: Q01DX001 (ip), vehicle: saline with Tween-80
[8] = dose: 100.0 mg/kg/injection, schedule: Q01DX001 (ip), vehicle: saline
[9] = dose: 200.0 mg/kg/injection, schedule: Q01DX001 (ip), vehicle: saline
[10] = dose: 400.0 mg/kg/injection, schedule: Q01DX001 (ip), vehicle: saline
[11] = dose: 100.0 mg/kg/injection, schedule: Q01DX009 (ip), vehicle: Klucel (hydroxypropylcellulose) (HPC)
[12] = dose: 100.0 mg/kg/injection, schedule: Q04DX003 (ip), vehicle: Klucel (hydroxypropylcellulose) (HPC)
[13] = dose: 200.0 mg/kg/injection, schedule: Q01DX009 (ip), vehicle: Klucel (hydroxypropylcellulose) (HPC)
[14] = dose: 200.0 mg/kg/injection, schedule: Q04DX003 (ip), vehicle: Klucel (hydroxypropylcellulose) (HPC)
[15] = dose: 400.0 mg/kg/injection, schedule: Q01DX009 (ip), vehicle: Klucel (hydroxypropylcellulose) (HPC)
[16] = dose: 400.0 mg/kg/injection, schedule: Q04DX003 (ip), vehicle: Klucel (hydroxypropylcellulose) (HPC)
[17] = dose: 100.0 mg/kg/injection, schedule: Q04DX003 (ip), vehicle: saline
[18] = dose: 200.0 mg/kg/injection, schedule: Q04DX003 (ip), vehicle: saline
[19] = dose: 400.0 mg/kg/injection, schedule: Q04DX003 (ip), vehicle: saline
[20] = dose: 5.0 mg/kg/injection, schedule: Q01DX001 (ip), vehicle: saline
[21] = dose: 10.0 mg/kg/injection, schedule: Q01DX001 (ip), vehicle: saline
[22] = dose: 20.0 mg/kg/injection, schedule: Q01DX001 (ip), vehicle: saline
[23] = dose: 100.0 mg/kg/injection, schedule: Q04DX002 (ip), vehicle: Klucel (hydroxypropylcellulose) (HPC)
[24] = dose: 200.0 mg/kg/injection, schedule: Q04DX002 (ip), vehicle: Klucel (hydroxypropylcellulose) (HPC)
[25] = dose: 400.0 mg/kg/injection, schedule: Q04DX002 (ip), vehicle: Klucel (hydroxypropylcellulose) (HPC)
[26] = dose: 40.0 mg/kg/injection, schedule: Q01DX001 (ip), vehicle: saline

Measured: T/C

Nc1ccc(S(=O)O)cc1
inactive: [1] 94 % of control | [2] 105 % of control | [3] 91 % of control | [4] 95 % of control | [5] 94 % of control | [6] 91 % of control

CCCCCCCCP(=O)(CCCC)CCCCCCCC
inactive: dose: 25.0 mg/kg/injection, schedule: Q01DX001 (ip), vehicle: saline with Tween-80 100 % of control | dose: 50.0 mg/kg/injection, schedule: Q01DX001 (ip), vehicle: saline with Tween-80 101 % of control | [7] 100 % of control and 104 % of control

CN(C)O
inactive: [1] 103 % of control | [3] 105 % of control | dose: 222.0 mg/kg/injection, schedule: Q01DX Z (ip), vehicle: saline 100 % of control | dose: 333.0 mg/kg/injection, schedule: Q01DX Z (ip), vehicle: saline 97 % of control | [5] 108 % of control | dose: 500.0 mg/kg/injection, schedule: Q01DX Z (ip), vehicle: saline 106 % of control

CCc1cccc(CC)c1N(C(C)=O)C(C)=O
inactive: [1] 98 % of control | [3] 104 % of control | [5] 102 % of control

CCCCC(=O)N/N=C/c1ccccc1C(=O)O
inactive: [8] 96 % of control | [9] 107 % of control | [10] 91 % of control

COc1cc(C)n2nnnc2n1
inactive: dose: 25.0 mg/kg/injection, schedule: Q01DX001 (ip), vehicle: saline 91 % of control | dose: 50.0 mg/kg/injection, schedule: Q01DX001 (ip), vehicle: saline 96 % of control | [8] 96 % of control

CCCCNC(=O)Nc1ccc(CC)cc1
inactive: [11] 98 % of control | [12] 97 % of control | [13] 102 % of control | [14] 102 % of control | [15] 96 % of control | [16] 100 % of control

Nc1cccc(CCCCc2ccccc2)c1
inactive: [7] 102 % of control | dose: 200.0 mg/kg/injection, schedule: Q01DX001 (ip), vehicle: saline with Tween-80 100 % of control

CC(=O)NC1C(O)CC(O)(C(=O)O)OC1C(O)C(O)CO (stereo not drawn)
inactive: [8] 98 % of control | [9] 100 % of control | [10] 94 % of control

COC(CN)C(Cl)(Cl)Cl (stereo not drawn)
inactive: [8] 98 % of control | dose: 100.0 mg/kg/injection, schedule: Q04DX002 (ip), vehicle: saline 96 % of control and 89 % of control | [17] 98 % of control | [9] 107 % of control | dose: 200.0 mg/kg/injection, schedule: Q04DX002 (ip), vehicle: saline 94 % of control and 100 % of control | [18] 107 % of control | [10] 96 % of control | dose: 400.0 mg/kg/injection, schedule: Q04DX002 (ip), vehicle: saline 96 % of control and 100 % of control | [19] 106 % of control

CCOc1nc(C)cc(C(=O)O)c1C#N
inactive: dose: 75.0 mg/kg/injection, schedule: Q01DX001 (ip), vehicle: other 95 % of control | dose: 150.0 mg/kg/injection, schedule: Q01DX001 (ip), vehicle: other 100 % of control | dose: 300.0 mg/kg/injection, schedule: Q01DX001 (ip), vehicle: other 103 % of control

CC(=O)NC(C)CC(C)C (stereo not drawn)
inactive: [17] 113 % of control | [18] 103 % of control

Cc1ccc(NC(=O)Oc2cccnc2)cc1NC(=O)Oc1cccnc1
inactive: [11] 93 % of control | [13] 94 % of control

CCC(=CCC1=C(O)c2ccccc2C(=O)C1=O)CC
inactive: dose: 25.0 mg/kg/injection, schedule: Q01DX009 (ip), vehicle: water 120 % of control | dose: 50.0 mg/kg/injection, schedule: Q01DX009 (ip), vehicle: water 97 % of control | dose: 100.0 mg/kg/injection, schedule: Q01DX001 (ip), vehicle: water 103 % of control | dose: 100.0 mg/kg/injection, schedule: Q01DX009 (ip), vehicle: water 100 % of control | dose: 200.0 mg/kg/injection, schedule: Q01DX009 (ip), vehicle: water 94 % of control

CCCN(CCC)C(=O)OCC
inactive: [1] 97 % of control | [3] 100 % of control

Cc1cccc(C(=O)NC(=S)Nc2ccccc2)c1
inactive: [20] 97 % of control | [21] 103 % of control | [22] 97 % of control

O=C(CC(O)(c1ccccc1)c1ccccc1)Nc1ccccn1
inactive: dose: 100.0 mg/kg/injection, schedule: Q01DX001 (ip), vehicle: other 89 % of control | dose: 200.0 mg/kg/injection, schedule: Q01DX001 (ip), vehicle: other 89 % of control

CC(=O)c1ccc(OCC(O)CN2CCN(c3ccccc3)CC2)c(C)c1 (stereo not drawn)
inactive: [2] 108 % of control | [4] 108 % of control | [6] 101 % of control

CSC(NC(=O)c1ccc([N+](=O)[O-])cc1)C(N)=O (stereo not drawn)
inactive: dose: 50.0 mg/kg/injection, schedule: Q04DX002 (ip), vehicle: Klucel (hydroxypropylcellulose) (HPC) 102 % of control | [23] 106 % of control | [24] 109 % of control and 113 % of control | [25] 109 % of control

O=C(c1c2c(nc3ccccc13)CCCC2)N1CCOCC1
inactive: [8] 100 % of control | [9] 97 % of control | [10] 97 % of control

CCCCC1(C2CCCC2)NC(C)(C)CC(C)O1 (stereo not drawn)
inactive: [1] 95 % of control | [3] 104 % of control

NC(=O)N/N=C/c1ccccc1
inactive: [11] 96 % of control | [23] 89 % of control | [13] 96 % of control | [24] 100 % of control | [15] 111 % of control | [25] 104 % of control

Clc1ccccc1OB(Oc1ccccc1Cl)Oc1ccccc1Cl
inactive: [8] 101 % of control | [9] 95 % of control

CC(=O)N1Cc2cc3ccccc3nc2C1
inactive: [17] 98 % of control | [18] 107 % of control | [19] 96 % of control

CC(=O)NC1CCC(CCC2CCCCC2)CC1 (stereo not drawn)
inactive: dose: 100.0 mg/kg/injection, schedule: Q04DX002 (ip), vehicle: saline with Tween-80 98 % of control | dose: 200.0 mg/kg/injection, schedule: Q04DX002 (ip), vehicle: saline with Tween-80 94 % of control | dose: 400.0 mg/kg/injection, schedule: Q04DX002 (ip), vehicle: saline with Tween-80 98 % of control

CCCCCCCCCC1CCC(C(=O)O)CC1 (stereo not drawn)
inactive: dose: 75.0 mg/kg/injection, schedule: Q01DX009 (ip), vehicle: Klucel (hydroxypropylcellulose) (HPC) 105 % of control | dose: 150.0 mg/kg/injection, schedule: Q01DX009 (ip), vehicle: Klucel (hydroxypropylcellulose) (HPC) 96 % of control | dose: 300.0 mg/kg/injection, schedule: Q01DX009 (ip), vehicle: Klucel (hydroxypropylcellulose) (HPC) 98 % of control

COC1CC(O[C@H]2CC[C@@]3(C)[C@H](CC[C@@H]4[C@@H]3CC[C@]3(C)[C@@H](C5=CC(=O)OC5)[C@@H](OC(C)=O)C[C@]43O)C2)OC(C)C1O (stereo partly drawn)
inactive: [20] 94 % of control | [21] 108 % of control | [22] 100 % of control | [26] 103 % of control | dose: 50.0 mg/kg/injection, schedule: Q01DX001 (ip), vehicle: carboxymethylcellulose (CMC) 98 % of control | dose: 80.0 mg/kg/injection, schedule: Q01DX001 (ip), vehicle: saline 114 % of control | dose: 100.0 mg/kg/injection, schedule: Q01DX001 (ip), vehicle: carboxymethylcellulose (CMC) 104 % of control

ClCCN(CCCl)CCNc1ccnc2cc(Cl)ccc12
inactive: [20] 100 % of control | [21] 108 % of control | [22] 117 % of control | [26] 116 % of control

O=C(O)CCCc1ccc2c(c1)-c1ccccc1S2=O (stereo not drawn)
inactive: [2] 106 % of control | [4] 109 % of control | [6] 110 % of control

Nc1ncnc(N)c1NC(=O)c1cc(Cl)cc(Cl)c1
inactive: [12] 91 % of control | [16] 86 % of control

Clc1ccc([As](c2ccc(Cl)cc2)c2ccc(Cl)cc2)cc1
inactive: [2] 100 % of control | [4] 90 % of control | [6] 101 % of control

C[Si](C)(C)N1N=NC2C(=O)N(c3ccccc3)C(=O)C21 (stereo not drawn)
inactive: [11] 105 % of control | [12] 92 % of control | [13] 110 % of control | [14] 102 % of control | [15] 112 % of control | [16] 103 % of control

O=C(O)CC(CS(=O)O)C(=O)O (stereo not drawn)
inactive: [7] 91 % of control
